Measured values taken from US20260242416A1, “ANTIMICROBIAL PEPTIDES” (priority 2023, published 2026).
Where two headings read alike, the source gives them in different places. Where a SMILES comes first, the peptide text is derived from it.

What was measured:
E. coli ATCC 25922 = type: cell-based, Escherichia coli
Protocol: (§1) Bacteria were grown overnight at 37° C. in Mueller-Hinton Broth (MHB; Sigma-Aldrich, St. Louis. MO, USA) in a shaking incubator and aliquoted into cryovials with a 50% glycerol solution in a 1:1 ratio. No additives were added to the MHB during the growth of bacterial isolates. Glycerol stocks were stored at −80° C.
(§2) The antimicrobial activity of the putative AMPs was determined by a broth microdilution assay as described by the Clinical and Laboratory Standards Institute, with the published adaptations for testing of cationic peptides. Escherichia coli 25922 and Staphylococcus aureus 29213 isolates were purchased from the American Type Culture Collection (ATCC; Manassas, VA, USA). A human clinical isolate of Salmonella enterica serovar Enteritidis was provided by the BC Centre for Disease Control. Bacteria from stocks stored at −80° C. were streaked onto nonselective Columbia blood agar with 5% sheep blood (Oxoid) and incubated overnight at 37° C. Next, 2-4 colonies were streaked onto a new agar plate to ensure uniform health of colonies used in the broth microdilution assay. Isolated colonies were suspended in MHB and the optical density was measured with a spectrophotometer to create an initial inoculum concentration of approximately 1×10^8 cfu/mL. The inoculum was diluted 1:250 to a final concentration of 2-8×10^5 cfu/mL, which was confirmed by performing a Total Viability Count (TVC). The TVC consisted of plating a 1:1000 dilution of the final inoculum on nonselective media and was also used to confirm the health and purity of the inoculum in each trial.
(§3) Lyophilized 80 μg peptide aliquots synthesized by GenScript (Piscataway, NJ, USA) were resuspended to 1.28 mg/mL with UltraPure water (Thermo Fisher Scientific, Waltham, MA, USA) and serially diluted in polypropylene 96-well microtiter plates (Greiner Bio-One #650261, Kremsmunster, Austria) from 128 down to 0.5 μg/mL. Two columns per plate were reserved for growth and sterility controls. Inoculum was added to the wells containing the peptide and the growth control. Plates were incubated for 20-24 h at 37° C. The minimum inhibitory concentration (MIC) was determined as the lowest peptide concentration where there was no visible bacterial growth.

[1] = system: Salmonella enterica serovar Enteritidis (human clinical isolate); type: cell-based
Protocol: as §1, §2, §3

S. aureus ATCC 29213 = type: cell-based, Staphylococcus aureus
Protocol: as §1, §2, §3

[2] = serovar Enteritidis (human clinical isolate)

CC[C@H](C)[C@H](N)C(=O)N[C@H](C(=O)N[C@@H](CCC(=O)O)C(=O)N1CCC[C@H]1C(=O)N[C@H](C(=O)NCC(=O)N[C@H](C(=O)N[C@@H](CCCCN)C(=O)N[C@@H](C)C(=O)N1CCC[C@H]1C(=O)N[C@H](C(=O)N[C@@H](Cc1ccccc1)C(=O)N[C@H](C(=O)N[C@@H](CO)C(=O)N[C@@H](CCC(=O)O)C(=O)N[C@@H](CC(C)C)C(=O)N[C@@H](CCCNC(=N)N)C(=O)NCC(=O)NCC(=O)N[C@@H](Cc1c[nH]c2ccccc12)C(=O)N[C@@H](CC(C)C)C(=O)N[C@@H](CCCCN)C(=O)N[C@@H](CCCCN)C(=O)N[C@@H](CCCNC(=N)N)C(=O)O)[C@@H](C)O)[C@@H](C)O)[C@@H](C)O)C(C)C)[C@@H](C)O [PaVa3] (H-ITEPVGTKAPTFTSELRGGWLKKR-OH; N-terminus and C-terminus assumed)
>128/>128/>128 ug/mL: MIC (ug/mL) E. coli (E. coli ATCC 25922; ATCC 25922) | MIC (ug/mL) S. Enteritidis [1, 2] | MIC (ug/mL) S. aureus (S. aureus ATCC 29213; ATCC 29213)

CC(C)C[C@H](NC(=O)[C@H](C)NC(=O)[C@@H](N)Cc1c[nH]c2ccccc12)C(=O)N[C@@H](CCCNC(=N)N)C(=O)N[C@@H](Cc1c[nH]c2ccccc12)C(=O)N[C@@H](CCCCN)C(=O)N[C@H](C(=O)N[C@@H](CCCNC(=N)N)C(=O)O)[C@@H](C)O [PaVi1, WALRWKTR] (H-WALRWKTR-OH; N-terminus and C-terminus assumed)
>128/>128/>128 ug/mL: MIC (ug/mL) E. coli (E. coli ATCC 25922; ATCC 25922) | MIC (ug/mL) S. Enteritidis [1, 2] | MIC (ug/mL) S. aureus (S. aureus ATCC 29213; ATCC 29213)

C[C@H](NC(=O)CNC(=O)[C@H](CCCNC(=N)N)NC(=O)[C@H](CCC(=O)O)NC(=O)[C@H](CCC(=O)O)NC(=O)[C@@H](N)CCCCN)C(=O)N1CCC[C@H]1C(=O)N[C@@H](CCCCN)C(=O)NCC(=O)N[C@@H](CS)C(=O)N[C@@H](Cc1c[nH]c2ccccc12)C(=O)N[C@H](C(=O)N[C@@H](CCCCN)C(=O)N[C@@H](CO)C(=O)N[C@@H](Cc1ccc(O)cc1)C(=O)N1CCC[C@H]1C(=O)N1CCC[C@H]1C(=O)N[C@@H](CCCCN)C(=O)N1CCC[C@H]1C(=O)N[C@@H](CS)C(=O)N[C@@H](CO)C(=O)NCC(=O)N[C@@H](CCCCN)C(=O)N[C@@H](CCCNC(=N)N)C(=O)O)[C@@H](C)O [PeNi13] (H-KEERGAPKGCWTKSYPPKPCSGKR-OH; N-terminus and C-terminus assumed)
>128/>128/>128 ug/mL: MIC (ug/mL) E. coli (E. coli ATCC 25922; ATCC 25922) | MIC (ug/mL) S. Enteritidis [1, 2] | MIC (ug/mL) S. aureus (S. aureus ATCC 29213; ATCC 29213)

CC(C)C[C@H](NC(=O)[C@H](CCCCN)NC(=O)[C@H](CCCCN)NC(=O)[C@H](CC(C)C)NC(=O)[C@@H](NC(=O)[C@H](Cc1ccc(O)cc1)NC(=O)[C@@H](NC(=O)CNC(=O)[C@H](CCC(=O)O)NC(=O)[C@H](CC(N)=O)NC(=O)[C@H](Cc1c[nH]c2ccccc12)NC(=O)[C@@H]1CCCN1C(=O)[C@H](CO)NC(=O)[C@H](CO)NC(=O)[C@@H]1CCCN1C(=O)[C@H](CC(C)C)NC(=O)[C@@H](N)Cc1ccccc1)[C@@H](C)O)C(C)C)C(=O)N[C@@H](CCCCN)C(=O)N[C@@H](CO)C(=O)O [PeNi15, FLPSSPWNEGTYVLKKLKS] (H-FLPSSPWNEGTYVLKKLKS-OH; N-terminus and C-terminus assumed)
>128/>128/>128 ug/mL: MIC (ug/mL) E. coli (E. coli ATCC 25922; ATCC 25922) | MIC (ug/mL) S. Enteritidis [1, 2] | MIC (ug/mL) S. aureus (S. aureus ATCC 29213; ATCC 29213)

CC[C@H](C)[C@H](NC(=O)[C@H](CCCNC(=N)N)NC(=O)[C@@H](NC(=O)[C@@H]1CCCN1C(=O)[C@H](CCCNC(=N)N)NC(=O)[C@@H](NC(=O)[C@@H]1CCCN1C(=O)[C@H](CCC(N)=O)NC(=O)[C@H](CC(C)C)NC(=O)CNC(=O)[C@@H]1CCCN1C(=O)[C@@H]1CCCN1C(=O)[C@@H](NC(=O)[C@H](CCCCN)NC(=O)[C@H](Cc1c[nH]c2ccccc12)NC(=O)[C@H](C)NC(=O)[C@@H](NC(=O)[C@H](C)N)[C@@H](C)O)C(C)C)[C@@H](C)CC)[C@@H](C)CC)C(=O)N[C@@H](CCCNC(=N)N)C(=O)N1CCC[C@H]1C(=O)N[C@@H](CC(C)C)C(=O)N[C@@H](CS)C(=O)NCC(=O)N[C@@H](CC(N)=O)C(=O)N[C@@H](CC(=O)O)C(=O)N[C@@H](CCCCN)C(=O)N[C@@H](CO)C(=O)O [PeNi16] (H-ATAWKVPPGLQPIRPIRIRPLCGNDKS-OH; N-terminus and C-terminus assumed)
>128/>128/>128 ug/mL: MIC (ug/mL) E. coli (E. coli ATCC 25922; ATCC 25922) | MIC (ug/mL) S. Enteritidis [1, 2] | MIC (ug/mL) S. aureus (S. aureus ATCC 29213; ATCC 29213)

N=C(N)NCCC[C@H](NC(=O)[C@H](CCCNC(=N)N)NC(=O)[C@H](CO)NC(=O)[C@H](CCCNC(=N)N)NC(=O)[C@H](Cc1c[nH]cn1)NC(=O)[C@H](CO)NC(=O)[C@H](Cc1c[nH]c2ccccc12)NC(=O)[C@H](CCCNC(=N)N)NC(=O)[C@@H]1CCCN1C(=O)[C@@H](N)CCCNC(=N)N)C(=O)O [PeNi18, RPRWSHRSRR] (H-RPRWSHRSRR-OH; N-terminus and C-terminus assumed)
>128/>128/>128 ug/mL: MIC (ug/mL) E. coli (E. coli ATCC 25922; ATCC 25922) | MIC (ug/mL) S. Enteritidis [1, 2] | MIC (ug/mL) S. aureus (S. aureus ATCC 29213; ATCC 29213)

CC[C@H](C)[C@H](NC(=O)[C@H](C)NC(=O)[C@H](Cc1ccccc1)NC(=O)[C@H](C)NC(=O)[C@H](C)NC(=O)[C@@H](N)C(C)C)C(=O)N[C@H](C(=O)NCC(=O)N[C@@H](CS)C(=O)N[C@@H](CC(C)C)C(=O)N[C@@H](CS)C(=O)N[C@@H](CS)C(=O)N[C@@H](CCCNC(=N)N)C(=O)N[C@@H](CCCNC(=N)N)C(=O)N1CCC[C@H]1C(=O)N[C@@H](CCCNC(=N)N)C(=O)N[C@@H](CCCNC(=N)N)C(=O)O)[C@@H](C)CC [PoRo1, VAAFAIIGCLCCRRPRR] (H-VAAFAIIGCLCCRRPRR-OH; N-terminus and C-terminus assumed)
>128/>128/>128 ug/mL: MIC (ug/mL) E. coli (E. coli ATCC 25922; ATCC 25922) | MIC (ug/mL) S. Enteritidis [1, 2] | MIC (ug/mL) S. aureus (S. aureus ATCC 29213; ATCC 29213)

CC[C@H](C)[C@H](NC(=O)CNC(=O)[C@H](CO)NC(=O)[C@H](CC(C)C)NC(=O)[C@H](CC(C)C)NC(=O)CN)C(=O)N[C@@H](CC(C)C)C(=O)NCC(=O)N[C@@H](C)C(=O)NCC(=O)N[C@@H](CCCCN)C(=O)N[C@@H](CCCCN)C(=O)O [RaOm1, GLLSGILGAGKK] (H-GLLSGILGAGKK-OH; N-terminus and C-terminus assumed)
>128/>128/>128 ug/mL: MIC (ug/mL) E. coli (E. coli ATCC 25922; Table 14, first value of the cell, three independent experiments, highest concentration tested 128) | MIC (ug/mL) S. Enteritidis ([1]; Table 14, second value of the cell, three independent experiments, highest concentration tested 128) | MIC (ug/mL) S. aureus (S. aureus ATCC 29213; Table 14, third value of the cell, three independent experiments, highest concentration tested 128)

N=C(N)NCCC[C@H](NC(=O)[C@H](CCCNC(=N)N)NC(=O)CNC(=O)[C@H](Cc1ccccc1)NC(=O)[C@@H]1CCCN1C(=O)[C@H](Cc1ccccc1)NC(=O)[C@@H]1CCCN1C(=O)[C@@H](N)Cc1ccccc1)C(=O)O [RaSi2, FPFPFGRR] (H-FPFPFGRR-OH; N-terminus and C-terminus assumed)
>128/>128/>128 ug/mL: MIC (ug/mL) E. coli (E. coli ATCC 25922; ATCC 25922) | MIC (ug/mL) S. Enteritidis [1, 2] | MIC (ug/mL) S. aureus (S. aureus ATCC 29213; ATCC 29213)
